Experimental data reported in patent publication US20230235022A1, “NEUTROPHIL ELASTASE BINDING PEPTIDES AND COMPOSITIONS THEREOF” (CASE WESTERN RESERVE UNIVERSITY, priority 2020, published 2023).

B1: mouse neutrophil elastase (m-NE) (protein)
chain: IVGGRPARPHAWPFMASLQRRGGHFCGATLIARNFVMSAAHCVNGLNFRSVQVVLGAHDLRRQERTRQTFSVQRIFENGFDPSQLLNDIVIIQLNGSATINANVQVAQLPAQGQGVGDRTPCLAMGWGRLGTNRPSPSVLQELNVTVVTNMCRRRVNVCTLVPRRQAGICFGDSGGPLVCNNLVQGIDSFIRGGCGSGLYPDAFAPVAEFADWINSIIRSHNDHLLTHPKDREGRTN
B2: human neutrophil elastase (h-NE) (protein)
chain: IVGGRRARPHAWPFMVSLQLRGGHFCGATLIAPNFVMSAAHCVANVNVRAVRVVLGAHNLSRREPTRQVFAVQRIFENGYDPVNLLNDIVILQLNGSATINANVQVAQLPAQGRRLGNGVQCLAMGWGLLGRNRGIASVLQELNVTVVTSLCRRSNVCTLVRGRQAGVCFGDSGSPLVCNGLIHGIASFVRGGCASGLYPDAFAPVAQFVNWIDSIIQ

Assays:
neutrophils = test: Neutrophil viability with free or encapsulated HCQ; assay type: cell-based
[1] = Lethality after intravenous administration of HCQ in mouse; assay type: in vivo
[2] = biological target: RCL-derived NE binding peptide (NEBP)

Molecule | concentration at which neutrophil viability is affected (neutrophils) | lethality [1] | HPLC-based analysis of cleavage by NE [2]
CCN(CCO)CCCC(C)Nc1ccnc2cc(Cl)ccc12 (stereo not shown) [free HCQ, hydroxychloroquine] | ≥ 10^3 ng/ml | high lethality | 
B1 |  |  | such peptides are not cleaved by NE
B2 |  |  | such peptides are not cleaved by NE
